Measured values as given in paper PMC2724708, “Adenosine Kinase of T. b. rhodesiense Identified as the Putative Target of 4-[5-(4-phenoxyphenyl)-2H-pyrazol-3-yl]morpholine Using Chemical Proteomics” (PLoS Neglected Tropical Diseases, 2009).
Like-named read-outs stand apart in the source and are kept apart here.

Experiments:
[1] = target: T1, adenosine kinase of T. b. rhodesiense (TbrAK) (Trypanosoma brucei rhodesiense, UniProt Q584S0); assay: Radiometric assay for kinetic study of TbrAK; conditions: in presence of compound 1 (33.4 µM), 167 µM ATP
T1 sequence (Q584S0 1-345): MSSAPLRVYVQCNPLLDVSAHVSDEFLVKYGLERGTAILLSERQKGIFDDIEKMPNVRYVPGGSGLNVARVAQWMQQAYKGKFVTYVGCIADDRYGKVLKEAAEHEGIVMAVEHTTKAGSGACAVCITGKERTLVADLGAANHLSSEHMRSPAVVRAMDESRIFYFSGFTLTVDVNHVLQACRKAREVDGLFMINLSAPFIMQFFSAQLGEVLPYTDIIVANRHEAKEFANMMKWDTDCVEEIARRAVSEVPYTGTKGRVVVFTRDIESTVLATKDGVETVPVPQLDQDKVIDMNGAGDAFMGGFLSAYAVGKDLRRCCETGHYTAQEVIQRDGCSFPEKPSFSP
Experimental: Kinetic constants for adenosine phosphorylation by TbrAK were obtained by monitoring the conversion of [2-^3H]adenosine to [2-^3H]AMP. Reactions were executed at 37°C in a final volume of 30 µl containing 20 mM Hepes (pH 7.0), 50 mM NaCl, 167 µM ATP, 167 µM MgCl2, 0.34% BSA, and 0.34% DMSO. […] The concentration of [2-^3H]adenosine (0.1–12 µM) was chosen in consideration of Michaelis–Menten conditions for initial velocity measurements. The reaction was started by the addition of 1 ng (0.88 nM) TbrAK. The reactions were incubated and 5 µl aliquots were spotted on 5 mm diameter DE81-cellulose disks placed in a 96-well plate to stop the reaction. The disks were washed 3 times with 250 µl 5 mM ammonium formate, once with H2O, transferred to scintillation vials, and then soaked with 2 ml of a displacement solution (100 mM HCl, 200 mM KCl) and gently shaken for 1 minute to elute the phosphorylated products [9]. After adding 10 ml scintillation liquid, the samples were counted in scintillation counter. Km and Vmax with respect to adenosine and Ki for adenosine substrate-inhibition in absence and presence of compound 1 were determined by non-linear fit of the data to the substrate-inhibition model described elsewhere [10].

[2] = target: T2, glycosomal T. b. rhodesiense glyceraldehyde-3-phosphate dehydrogenase (TbrGAPDH) (Trypanosoma brucei brucei, UniProt P22512); assay: Thermal stability assay (CD spectroscopy) regarding TbrGAPDH; assay type: binding; conditions: compound at 50 µM
T2 construct: made in house; host or cells: E. coli BL21(DE3), pET28a
T2 sequence (P22512 whole entry): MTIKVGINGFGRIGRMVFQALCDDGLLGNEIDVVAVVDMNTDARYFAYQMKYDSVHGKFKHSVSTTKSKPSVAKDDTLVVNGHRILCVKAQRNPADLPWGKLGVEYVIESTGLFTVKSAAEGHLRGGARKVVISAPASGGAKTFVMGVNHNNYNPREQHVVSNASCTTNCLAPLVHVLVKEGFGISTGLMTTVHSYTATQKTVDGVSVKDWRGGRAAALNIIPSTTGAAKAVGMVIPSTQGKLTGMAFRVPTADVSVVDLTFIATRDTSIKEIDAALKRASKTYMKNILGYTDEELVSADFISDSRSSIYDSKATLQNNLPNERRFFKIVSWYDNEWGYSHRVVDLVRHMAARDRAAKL
Experimental: Thermal unfolding of TbrGAPDH and TbrAK was studied by circular dichroism (CD) spectroscopy at 220 nm within the temperature range of 20–90°C using a heating rate of 40°C/h. […]
All measurements were done in a 0.5 mm cell and contained 0.1 %
DMSO and 2.5 mM EDTA to prevent enzyme activity. Thermal stability was analyzed in presence of 500 µM substrate to record the maximum stability limit, whereas compounds 1 to 5 were used at a concentration of 50 µM, being the highest concentration achievable for compound 2, to allow comparison of all compounds at the same concentration. For evaluation of the CD spectra, the buffer spectrum was subtracted from the protein CD spectrum. All thermal unfolding curves were fitted to a two-state model that had been published recently. The mean of three independent experiments are reported. […]

[3] = system: bloodstream-form T. b. brucei TbAK RNAi cells; assay: Drug sensitivity test (Alamar blue) on TbAK RNAi knock-down mutant; assay type: cell-based; conditions: Trypanosoma brucei
Experimental: The construction of the T. b. brucei adenosine kinase gene knock-down mutant has been described recently. Expression of a stem-loop construct targeting TbAK was induced by addition of 10 µg/ml tetracycline to the medium. Down-regulation of TbAK expression was verified by Northern blotting. Parasites were cultivated and drug sensitivity was tested using the Alamar blue test. IC50 values were calculated by nonlinear fitting to the sigmoidal dose-response curve using Origin® software. The assays were performed in triplicates for at least four times.

T. b. rhodesiense = system: T. b. rhodesiense; parameters: method as in PMID 17949068; conditions: in vitro, blood stage parasite; read-out: IC50 against blood stage T.b. rhodesiense; cited from earlier work

SMILES: c1ccc(Oc2ccc(-c3cc(N4CCOCC4)[nH]n3)cc2)cc1 [compound 1, 4-[5-(4-phenoxyphenyl)-2H-pyrazol-3-yl]morpholine]
- Ki adenosine (substrate-inhibition) [1]: 78400 ± 2200 nM
- Vmax [1]: 14.20 ± 0.14 nM/min
- kcat [1]: 0.27 ± 0.01 s⁻¹
- Tm of TbrGAPDH [2]: 46.8 ± 0.1 °C
- IC50 ([3]; read-out: IC50 on TbAK RNAi cells, induced): 271 ± 25 nM
- IC50 ([3]; read-out: IC50 on TbAK RNAi cells, non-induced): 131 ± 43 nM
- IC50 (T. b. rhodesiense): 1000 nM
